Drawing on PubChem BioAssay (NCI), this text covers TGI and GI50 for 8 compounds.

Several values for one entry are separate records, joined by “and”; a condition that tells them apart may be missing. Equal values may be shown once.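 1) Cells in 96-well plates. 2) Compound, 48 h, 5 concentrations. 3) Linear interpolation between surrounding doses. 4) Unreached endpoint = highest concentration. GI50: concentration for 50% inhibition of growth. TGI is the concentration that stops growth completely.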

Among the test systems are U251 CNS; NCI-H460 lung; PC-3 prostate; SW-620 colon; SK-MEL-2 melanoma; HL-60(TB) leukemia; SK-MEL-5 melanoma; BT-549 breast; MOLT-4 leukemia; HCC-2998 colon.
What all share (assay): NCI-60 cell line screen, 48 h

Regarding `CC(C)O/N=C/c1cc(NC(=S)OC(C)C)ccc1Cl`, the TGI with U251 CNS was over 70.2 µM; in the experiment on NCI-H460 lung, over 100 µM; in the experiment on PC-3 prostate, over 100 µM; in the experiment with SW-620 colon, over 72.6 µM; with SK-MEL-2 melanoma, over 61.7 µM; in the experiment with HL-60(TB) leukemia it was 57.6 µM. Also, the TGI with SK-MEL-5 melanoma is over 73.4 µM; with BT-549 breast, over 100 µM; in the experiment on MOLT-4 leukemia, 48.8 µM; in the experiment on HCC-2998 colon, over 75.3 µM.
With `Cc1nc(-c2cn3c(n2)-c2ccc(-c4cnn(C(C)(C)C(N)=O)c4)cc2OCC3)n(C(C)C)n1`, the GI50 in the experiment with U251 CNS is 0.68 µM and 1.51 µM; with NCI-H460 lung, 0.111 µM and 0.169 µM; in the experiment with PC-3 prostate, 0.249 µM and 0.374 µM; in the experiment on SW-620 colon, 8.08 µM and 3.48 µM; with SK-MEL-2 melanoma, 4.25 µM and 4.74 µM; with HL-60(TB) leukemia, < 0.0202 µM and 0.00955 µM. Moreover, the GI50 in the experiment on SK-MEL-5 melanoma was 4.1 µM and 2.79 µM; with BT-549 breast, 0.633 µM and 0.594 µM; in the experiment with MOLT-4 leukemia it was 0.136 µM and 0.282 µM; in the experiment on HCC-2998 colon it was 0.895 µM and 0.295 µM. Further, the TGI in the experiment on U251 CNS is 25.4 µM and > 10 µM; in the experiment on NCI-H460 lung it was over 100 µM; with PC-3 prostate, over 75.3 µM; with SW-620 colon, over 100 µM; in the experiment on SK-MEL-2 melanoma it was 24.2 µM and > 10 µM; in the experiment on HL-60(TB) leukemia it was 25.8 µM and > 10 µM. Besides, the TGI in the experiment on SK-MEL-5 melanoma is 17.2 µM and > 10 µM; in the experiment with BT-549 breast it was 17.4 µM and > 10 µM; in the experiment on MOLT-4 leukemia it was 22.8 µM and > 10 µM; with HCC-2998 colon, 17.2 µM and > 10 µM.
`O=C(c1ccccc1)C(CN1CCCCC1)c1ccccc1` (stereo not given): the GI50 in the experiment on U251 CNS was 1.48 µM; in the experiment with NCI-H460 lung, 10.2 µM; in the experiment with PC-3 prostate, 1.69 µM; with SW-620 colon, 0.583 µM; in the experiment on SK-MEL-2 melanoma, 2.85 µM; in the experiment with HL-60(TB) leukemia, 1.42 µM. Also, the GI50 in the experiment with SK-MEL-5 melanoma was 2.38 µM; with BT-549 breast, 1.6 µM; in the experiment with MOLT-4 leukemia, 1.96 µM; in the experiment with HCC-2998 colon it was 3.97 µM. The TGI in the experiment on U251 CNS amounted to 3.24 µM; in the experiment with NCI-H460 lung, 26.1 µM; in the experiment with PC-3 prostate, 3.83 µM; with SW-620 colon, 2.17 µM; with SK-MEL-2 melanoma it was 8.73 µM; with HL-60(TB) leukemia, 3.86 µM. Also, the TGI in the experiment with SK-MEL-5 melanoma turned out to be 6.74 µM; in the experiment with BT-549 breast, 3.19 µM; with MOLT-4 leukemia it was 5.09 µM; with HCC-2998 colon, 12.3 µM.
`Cc1nnc(-c2cccc(-c3ccc(C(=O)NCC4CC4)cc3)c2)o1`: the GI50 in the experiment on U251 CNS, in the experiment with NCI-H460 lung, in the experiment on PC-3 prostate, with SW-620 colon, in the experiment with SK-MEL-2 melanoma and with HL-60(TB) leukemia was over 25 µM in each case. Besides, the GI50 in the experiment with SK-MEL-5 melanoma, with BT-549 breast, in the experiment on MOLT-4 leukemia and in the experiment on HCC-2998 colon was over 25 µM each time. Moreover, the TGI in the experiment on U251 CNS, with NCI-H460 lung, in the experiment on PC-3 prostate, in the experiment on SW-620 colon, in the experiment with SK-MEL-2 melanoma and in the experiment on HL-60(TB) leukemia was over 25 µM throughout. Besides, the TGI in the experiment with SK-MEL-5 melanoma, in the experiment on BT-549 breast, with MOLT-4 leukemia and with HCC-2998 colon was over 25 µM throughout.
Consider `COc1cc(C(=O)N2CCN(c3ncnc4ccccc34)CC2)c(N)cc1OCc1ccccc1`, for which the GI50 was 11.3 µM in the experiment with U251 CNS; 11.3 µM in the experiment with NCI-H460 lung; 15.4 µM in the experiment on PC-3 prostate; 11.4 µM with SW-620 colon; 16.5 µM in the experiment on SK-MEL-2 melanoma; 20.4 µM in the experiment on HL-60(TB) leukemia. Also, the GI50 was 11.1 µM in the experiment on SK-MEL-5 melanoma, 11.3 µM in the experiment with BT-549 breast, 8.55 µM in the experiment on MOLT-4 leukemia and 16.6 µM in the experiment on HCC-2998 colon. In addition, the TGI came out at 23.3 µM in the experiment on U251 CNS; 26.1 µM in the experiment with NCI-H460 lung; 43.2 µM with PC-3 prostate; 23.5 µM with SW-620 colon; 41.3 µM with SK-MEL-2 melanoma; 47.7 µM with HL-60(TB) leukemia. Besides, the TGI is 23 µM in the experiment with SK-MEL-5 melanoma, 25 µM with BT-549 breast, 40.4 µM in the experiment on MOLT-4 leukemia and 30.3 µM in the experiment on HCC-2998 colon.
Consider `Cn1c2c(c3ccc([N+](=O)[O-])cc3c1=O)C(=O)c1ccccc1-2`, for which the GI50 in the experiment on U251 CNS, in the experiment on NCI-H460 lung, with PC-3 prostate, in the experiment with SW-620 colon, in the experiment with SK-MEL-2 melanoma and with HL-60(TB) leukemia was over 100 µM each time. The GI50 in the experiment with SK-MEL-5 melanoma, with BT-549 breast, with MOLT-4 leukemia and in the experiment on HCC-2998 colon was over 100 µM each time. Further, the TGI with U251 CNS, in the experiment with NCI-H460 lung, in the experiment on PC-3 prostate, with SW-620 colon, in the experiment on SK-MEL-2 melanoma and in the experiment on HL-60(TB) leukemia was over 100 µM each time. Besides, the TGI with SK-MEL-5 melanoma, with BT-549 breast, in the experiment on MOLT-4 leukemia and in the experiment with HCC-2998 colon was over 100 µM each time.
As for `Cc1nc2ccccc2c(/C=C/c2ccc(Cl)cc2)c1C(=O)/C=C/c1ccc(C(F)(F)F)cc1`, the GI50 in the experiment on U251 CNS was 0.264 µM; with NCI-H460 lung, 0.642 µM; in the experiment on PC-3 prostate, 0.537 µM; in the experiment with SW-620 colon it was 0.251 µM; in the experiment on SK-MEL-2 melanoma, 0.627 µM; with HL-60(TB) leukemia, 0.36 µM. The GI50 is 1.34 µM in the experiment with SK-MEL-5 melanoma, 0.623 µM with BT-549 breast, 0.332 µM with MOLT-4 leukemia and 0.393 µM with HCC-2998 colon. Also, the TGI in the experiment on U251 CNS was 0.865 µM; with NCI-H460 lung, 1.89 µM; with PC-3 prostate it was 2.18 µM; in the experiment on SW-620 colon it was 0.761 µM; with SK-MEL-2 melanoma, 2.17 µM; in the experiment with HL-60(TB) leukemia, 1.38 µM. Moreover, the TGI in the experiment on SK-MEL-5 melanoma was 2.63 µM; in the experiment on BT-549 breast it was 2.1 µM; with MOLT-4 leukemia, over 100 µM; in the experiment on HCC-2998 colon, 1.35 µM.
As to `Cn1cnc([N+](=O)[O-])c1Sc1nc(N)nc2c1ncn2C1CC(O)C(CO)O1` (stereo not given), the TGI was over 100 µM with U251 CNS; over 40 µM in the experiment with NCI-H460 lung; over 100 µM in the experiment on PC-3 prostate; over 100 µM in the experiment with SW-620 colon; 25.7 µM in the experiment on SK-MEL-2 melanoma; over 47.1 µM in the experiment with HL-60(TB) leukemia. For the same compound, the TGI with SK-MEL-5 melanoma was 22.9 µM; in the experiment with BT-549 breast, over 100 µM; with MOLT-4 leukemia, 16.4 µM; in the experiment with HCC-2998 colon, over 100 µM.
